Columns and labels:
[1] = Dialysis of fat emulsion in aqueous glycerin, content of glutathione derivative retained (Example 23); format: physicochemical; settings: 2 mg/ml fat emulsion, dialysis 2 days at room temperature in 2.3 (w/v)% glycerin, 1.2 μm filter; uncorrected for volume increase
Method: The glutathione derivative combined with a fat emulsion was dialyzed in an aqueous solution of glycerin to compare changes in the content of the glutathione derivative in the fat emulsion.
Thereupon, the concentration of the glutathione derivative in the fat emulsion was adjusted to 2 mg/ml.
(2) These fat emulsions (14 ml) were dialyzed in 1 liter of a 2.3 (w/v)% aqueous solution of glycerin. Dialysis was carried out at room temperature for 2 days with one change of the aqueous glycerin solution during the dialysis. All the fat emulsions after dialysis were about 15.6 ml. They were filtered by a 1.2 μm filter and the content of the glutathione derivative was measured.

[2] = Plasma concentration after intravenous administration to mice (Example 24); format: in vivo, mouse; settings: iv tail vein 50 mg/kg, HPCD solution, 5 min, individual mice, quantitation limit about 1 μg/ml
Method: The blood levels of the glutathione derivatives of Example 4 and Comparative Example 1 were compared in mice that are a species having a high esterase activity in the blood.
(1) Male 8-week old BDF1 mice were purchased from Nippon SLC and used for the experiment. Until 9-week old when they were subjected to the experiment, the animals were kept at a temperature of 24±2° C. and a humidity of 55±5% under the condition under which the animals had free access to the animal feed (MF, Oriental Yeast Co., Ltd.) and drinking water (well water treated with 0.4±0.2 ppm hypochlorous acid).
After a fixed time, about 1 ml of blood was drawn from the heart of the animal under ethereal anesthesia (after drawing blood once, each mouse is sacrificed). The N number for each sample group at each time point was 2. After drawing, the blood was immediately cooled on ice and was centrifuged in the presence of sodium citrate to collect plasma. The plasma thus obtained was deproteinized with acetonitrile and then was analyzed by a C18 reverse phase high performance liquid chromatography using an aqueous solution of trifluoroacetic acid/acetonitrile system as the mobile phase to determine the concentration of glutathione derivative for each plasma.

[3] = Fat emulsion: particle distribution and content after 1.2 μm filtration (Examples 17, 18); format: physicochemical; settings: final concentration about 1 mg/ml
Method: Preparation of the fat emulsion having as an active ingredient the glutathione derivative of Example 4 was carried out using a high-pressure injection type homogenizer.
(1) The high-pressure injection type homogenizer used was Nanomizer LA from Nanomizer K.K. Purified yolk lecithin, purified soybean oil, and glycerin used were those that can be intravenously injected.
(2) Purified yolk lecithin 6 g and purified soybean oil 55 g were mixed by a mixer while heating to homogeneity. To this was added 560 mg of the glutathione derivative of Example 4 and was further stirred to homogeneity. A suitable amount of glycerin and water for injection were added and rough-emulsified by a mixer, and pH was adjusted to 7.4 with an aqueous solution of sodium hydroxide. Water was further added to a total amount of 560 g, which was pure-emulsified using the Nanomizer LA at an emulsification pressure of 550 kgf/cm^2 by passing it through the emulsion part for 11 times. […]
When the emulsion was crushed with tetrahydrofuran before and after filtration with a 1.2 μm filter and the content of the glutathione derivative of Example 4 was measured by HPLC, it was confirmed that the content of 90% or more of that before filtration was retained, homogeneity was good, and the glutathione derivative of Example 4 was stably mixed in the oil phase emulsion particles. […]

[4] = test system: rat models of suppressed hematopoietic function by 5-FU administration; test: Ratio of segmented neutrophils in rat models of suppressed hematopoietic function by 5-FU (Example 27); format: in vivo; settings: 5-FU rats; 30 mg/kg-body weight/day with fat emulsion
Method: (1) The animals used are the same as in Example 26. The keeping condition was a temperature of 23±2° C. and a humidity of 55±15%.
(2) The creation of the 5-FU administration model, the administration of test substances, and the blood collection schedule were carried out in a similar manner to Example 26. Hematological tests were carried out using the Toa multi-channel automatic cell counter K-4500 or Toa Sysmex CC-180A automatic cell counter, differential counts of white blood cells were carried out by May-Giemsa stain followed by microscopic examination, reticulocytes were counted by the Brecher method.
(3) Using the same schedule as in Example 26, the negative control group that only received the fat emulsion after 5-FU administration, the group that received the glutathione derivative of Example 4 at 30 mg/kg-body weight/day as a test substance together with the fat emulsion, the group that similarly received the glutathione derivative of Example 1 at 10 or 30 mg/kg-body weight/day, and the group that received the glutathione derivative of Example 7 at 30 or 60 mg/kg-body weight/day were studied.

TNFα = test: Plasma level of TNFα in normal healthy rats (ELISA); format: in vivo, rat; settings: fat emulsion 20 mg/kg-body weight/day, days 3, 5 and 7
Text: , plasma obtained form the EDTA-2K-treated blood on days 3, 5, and 7 of the experiment was used to determine plasma levels of interleukin 1β (hereinafter referred to as IL-1β) and tumor necrosis factor (hereinafter referred to as TNFα). For the determination, the rat IL-1β-ELISA system (manufactured by Amersham Pharmacia Biotek Co., Ltd.), the rat TNFα-ELISA system (manufactured by Amersham Pharmacia Biotek Co., Ltd.), and the BioRad microplate reader (MODEL550, Nippon BioRad laboratories, Co., Ltd.).

Content of the glutathione derivative in the fat emulsion after dialysis, of the initial feed [1] | Plasma concentration [2] | Content after filtration with a 1.2 μm filter ([3]; alcohol solution mixed with water for injection) | Behaviour on mixing alcohol solution with water for injection [3] | Compound | Recovery of segmented neutrophil counts relative to the negative control [4] | Plasma level of TNFα relative to the negative control group (TNFα)
14.0% | ≤ 1000 ng/mL | – | – | CCOC(=O)[C@@H](N)CCC(=O)N[C@@H](CSCc1ccccc1)C(=O)N[C@@H](C(=O)OCC)c1ccccc1.Cl [Comparative Example 1, Glu(Cys(Bzl)-D-Phg-O(Et))-O(Et)hydrochloride, reference compound] | – | –
– | – | ≤ 75% | immediately crystallized | CCCCCCCCCCCCCCCCOC(=O)[C@@H](N)CCC(=O)N[C@@H](CSCc1ccccc1)C(=O)N[C@@H](C(=O)OCC)c1ccccc1.Cl [Example 4, Glu(Cys(Bzl)-D-Phg-OEt)-O(Hexadecyl)hydrochloride] | tendency of promoting the recovery of segmented neutrophil counts | No increases

Reference: US6627732B1, “Glutathione derivatives and their dosage forms” (Teijin Limited, priority 1998, dated 2003)
